PubChem BioAssay (NCI)
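Results reflect a 48-hour exposure of cells in 96-well plates to compound at five concentrations. GI50 marks 50% less growth. Definition used: TGI = concentration required for complete inhibition of growth.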

Experiments:
Assay in all cases: NCI tumour cell line growth inhibition, 48 h
A549 NSCLC = tested on: A549 NSCLC
CCRF-CEM leukemia = tested on: CCRF-CEM leukemia
COLO 205 colon = tested on: COLO 205 colon
KM12 colon = tested on: KM12 colon
NCI-H522 lung = tested on: NCI-H522 lung
OVCAR-3 ovarian = tested on: OVCAR-3 ovarian
SK-MEL-2 melanoma = tested on: SK-MEL-2 melanoma

| SMILES | GI50 (A549 NSCLC) [µM] | TGI (A549 NSCLC) [µM] | GI50 (CCRF-CEM leukemia) [µM] | TGI (CCRF-CEM leukemia) [µM] | GI50 (COLO 205 colon) [µM] | TGI (COLO 205 colon) [µM] | GI50 (KM12 colon) [µM] | TGI (KM12 colon) [µM] | GI50 (NCI-H522 lung) [µM] | TGI (NCI-H522 lung) [µM] | GI50 (OVCAR-3 ovarian) [µM] | TGI (OVCAR-3 ovarian) [µM] | GI50 (SK-MEL-2 melanoma) [µM] | TGI (SK-MEL-2 melanoma) [µM] |
| --- | --- | --- | --- | --- | --- | --- | --- | --- | --- | --- | --- | --- | --- | --- |
| C[CH2][Sn]([CH2]C)([O]C(=O)c1ccc(F)cc1)[O]C(=O)c1ccc(F)cc1 | > 100 | > 100 | 8.75 | 31.4 | 20.3 | 39.6 | > 100 | > 100 | 1.71 | 4.48 | > 48 | > 82.2 | 12.8 | 17.5 |
| CCC[CH2][Sn]1([CH2]CCC)[S]CC[N]1S(=O)(=O)c1ccc(C)cc1 | 3.15 | 9.32 |  |  | 1.63 | 3.09 | 2.02 | 3.59 | 0.217 | 0.508 | 1.59 | 2.93 | 1.39 | 2.73 |
| O/N=C/c1ccc(O)c(O)c1 |  | > 100 |  | > 100 |  | > 100 |  | > 100 |  | > 100 |  | > 100 |  | > 100 |
| COC(=O)CC[C@]12C[C@]13CC[C@]1(C)C4C(C)C[C@]5(CC(C)C(=O)O5)OC4CC1(C)C3CCC2C(C)(C)O (some centres undefined) |  | > 100 |  |  |  | > 100 |  | > 100 |  | > 100 |  | > 100 |  | 82.6 |
| COc1cc2cnc3c4cc(OCc5ccccc5)ccc4ccc3c2cc1OC |  | > 100 |  | 17.3 |  | 74.9 |  | > 100 |  | > 100 |  | > 100 |  | 63 |
| C1=CCCC=CCC1.C[PH+](C)C.C[PH+](C)C.C[PH+](C)C.[Cl-].[Ir] | 80.1 | > 100 | 19.4 | 71.7 |  |  | 43.6 | > 100 | 26.4 | 60.1 | 29.6 | 77.4 | 23.4 | 60.4 |
| C=C1C(OC(C)=O)CC(OC(C)=O)C2(C)C(OC(C)=O)C(OC(C)=O)C3=C(C)C(OC(=O)/C=C/c4ccccc4)CC(C(OC(C)=O)C12)C3(C)C (centres undefined) |  | > 100 |  | > 100 |  | > 100 |  | > 100 |  | > 100 |  |  |  | > 100 |
| O=c1c2cc3ccccc3n2c(=O)c2cc3ccccc3n12 |  | > 100 |  | > 100 |  |  |  | > 100 |  | > 100 |  | > 100 |  | > 100 |
| COC(=O)N/N=C(\C)CC(=O)Nc1ccc(Cl)cc1 |  | > 100 |  | > 100 |  | > 100 |  | > 100 |  | > 100 |  | > 100 |  | > 100 |
| CC1c2[nH]c3ccccc3c2CCN1O (centres undefined) |  | > 100 |  | > 100 |  | > 100 |  | > 100 |  | > 100 |  | > 100 |  | > 100 |
| NC(=O)c1ccc(Cl)c([N+](=O)[O-])c1 |  | > 100 |  | > 100 |  | > 100 |  | > 100 |  | > 100 |  | > 100 |  |  |
| CO[C@@]1(c2ccccc2)O[C@H]2OCCC2[C@H]1c1ccc(Cl)cc1 (some centres undefined) |  | > 100 |  |  |  | 42.2 |  | > 100 |  | 67.9 |  | 49.7 |  | 80.9 |
| C=C1C[C@@H]2C[C@@H](C)CC(O)[C@]2(CCCN)C1O (some centres undefined) |  | > 100 |  | > 100 |  | > 100 |  | > 100 |  | > 100 |  | > 100 |  | > 100 |
| COc1ccc(OC(C)C(=O)O)c2c(=O)ccccc12 (centres undefined) |  | > 100 |  | > 100 |  | > 100 |  | > 100 |  | > 100 |  | > 100 |  | > 100 |
| O=C1NC2C(O)CCCCC2C12CCCCC2 (centres undefined) |  | > 100 |  |  |  | > 100 |  | > 100 |  | > 100 |  | > 100 |  | > 100 |
| CC(=O)NN1C(=O)C(Cc2ccccc2)c2ccccc21 (centres undefined) |  | > 100 |  | > 100 |  | > 100 |  | > 100 |  |  |  | > 100 |  | > 100 |
| COC(=O)C1CCc2nnc(-c3ccccc3)n21 (centres undefined) |  | > 100 |  | > 100 |  | > 100 |  | > 100 |  | > 100 |  | > 100 |  | > 100 |
| c1ccc(OC2=NC3=S(S2)SC(Oc2ccccc2)=N3)cc1 |  | 47.6 |  | 28.9 |  | 37.2 |  | 34.4 |  | 36.1 |  | 28.6 |  | 29.8 |
| COc1ccc2c(c1)CCc1c-2n[nH]c1-c1[nH]nc2c1CCc1cc(OC)ccc1-2 |  | > 100 |  | > 100 |  | > 100 |  | > 100 |  | 67.4 |  |  |  | > 100 |
| COc1ccc2c(c1)CN1CCc3c(cc(OC)c(OC)c3OC)C1C2 (centres undefined) |  | > 100 |  | > 100 |  | > 100 |  |  |  | > 100 |  | > 100 |  | > 100 |
| CC1=CCCC2C(C=O)(C1)CC(C)C2(CO)CC/C(=C/CO)CO (centres undefined) |  | > 100 |  | > 100 |  | > 100 |  | > 100 |  | > 100 |  | > 100 |  |  |
| CCC(CO)Nc1nc2c(c(=O)n(C)c(=O)n2C)n1CCO (centres undefined) |  | > 100 |  |  |  | > 100 |  | > 100 |  |  |  | > 100 |  | > 100 |
